Calls of active or inactive are those of the source. The rule behind the calls is not given here.
Key:
[1] = tested on: A549; test: Antiproliferative activity against human A549 cells assessed as inhibition of cell growth incubated for 48 hrs by MTT assay; assay type: functional, cell-based; settings: A549, 48 h
[2] = molecular target: T1, Lysine-specific histone demethylase 1A (Homo sapiens, UniProt O60341); test: Inhibition of LSD1 in human MGC-803 cells assessed as increase in H3K4me1 expression level at 0 to 24 nmol/L incubated for 48 hrs by Western blot analysis; assay type: cell-based; settings: dose 0-24 nmol/L
[3] = tested on: MGC-803; test: Induction of cell cycle arrest in human MGC-803 cells assessed as reduction in cyclin B1 protein expression incubated for 48 hrs by Western blot analysis; assay type: functional, cell-based; settings: dose 0-24 nmol/L
[4] = tested on: MGC-803; test: Induction of apoptosis in human MGC-803 cells assessed as downregulation of Mcl-1 protein expression incubated for 48 hrs by Western blot analysis; assay type: functional, cell-based; settings: dose 0-24 nmol/L
[5] = tested on: SGC-7901; test: Induction of morphological changes in human SGC-7901 cells assessed as appearance of broken nucleus at 30 nM incubated for 48 hrs by DAPI staining based analysis; assay type: functional, cell-based
[6] = tested on: MGC-803; test: Induction of cell cycle arrest in human MGC-803 cells assessed as reduction in CDC2 phosphorylation at Thr161 residue at 0 to 24 nmol/L incubated for 48 hrs by Western blot analysis; assay type: functional, cell-based; settings: dose 0-24 nmol/L
[7] = tested on: MGC-803; test: Induction of DNA damage in human MGC-803 cells assessed as DNA fragmentation by measuring increase in comet tails by fluorescence microscope based comet assay; assay type: functional, cell-based; settings: dose 0-24 nmol/L
[8] = Hepatotoxicity in BALB/c nude mouse xenografted with human MGC-803 cells assessed as effect on ALT level at 25 mg/kg/day, ip administered every day for 21 days; assay type: toxicity, organism-based; settings: in vivo, 504 h, time 21 day
[9] = tested on: MGC-803; test: Induction of morphological changes in human MGC-803 cells assessed as appearance of oblate and bright cells at 0 to 24 nmol/L incubated for 48 hrs by bright field microscopic analysis; assay type: functional, cell-based; settings: dose 0-24 nmol/L
[10] = tested on: MGC-803; test: Induction of morphological changes in human MGC-803 cells assessed as varied size of nucleus at 0 to 24 nmol/L incubated for 48 hrs by DAPI staining based analysis; assay type: functional, cell-based; settings: dose 0-24 nmol/L
[11] = tested on: KYSE-450; test: cells; settings: Homo sapiens, KYSE-450, 48 h
Description: Antiproliferative activity against human KYSE-450 cells assessed as inhibition of cell growth incubated for 48 hrs by MTT assay

[12] = Hepatotoxicity in BALB/c nude mouse xenografted with human MGC-803 cells assessed as effect on AST level at 25 mg/kg/day, ip administered every day for 21 days; assay type: toxicity, organism-based; settings: in vivo, 504 h, time 21 day
[13] = tested on: SGC-7901; test: Inhibition of cell migration in human SGC-7901 cells assessed as reduction in number of cells crossing membrane at 4 nmol/L measured after 48 hrs by transwell assay; assay type: functional, cell-based
[14] = molecular target: T2, Tubulin (Homo sapiens) (UniProt P68371+Q9H4B7+P0DPH7+P68366+Q13509+Q71U36+P04350+Q3ZCM7+P07437+P68363+Q9BQE3+Q6PEY2+Q13885+Q9BVA1+Q9BUF5); test: Inhibition of tubulin polymerization in human SGC-7901 cells assessed as destruction of microtubule network incubated for 48 hrs by immunofluorescence staining based fluorescence microscopic analysis; assay type: cell-based; settings: dose 0-30 nmol/L
[15] = tested on: MGC-803; test: Induction of apoptosis in human MGC-803 cells assessed as increase in cleaved caspase-3 level at 0 to 24 nmol/L incubated for 48 hrs by Western blot analysis; assay type: functional, cell-based; settings: dose 0-24 nmol/L
[16] = tested on: SGC-7901; test: Induction of cell cycle arrest in human SGC-7901 cells assessed as downregulation of Wee1 protein expression incubated for 48 hrs by Western blot analysis; assay type: functional, cell-based; settings: dose 0-30 nmol/L
[17] = tested on: MGC-803; test: Induction of cell cycle arrest in human MGC-803 cells assessed as downregulation of Wee1 protein expression incubated for 48 hrs by Western blot analysis; assay type: functional, cell-based; settings: dose 0-24 nmol/L
[18] = molecular target: T1, Lysine-specific histone demethylase 1A; test: Inhibition of LSD1 in human SGC-7901 cells assessed as increase in H3K4me1 expression level at 0 to 30 nmol/L incubated for 48 hrs by Western blot analysis; assay type: cell-based; settings: dose 0-30 nmol/L
[19] = molecular target: T1, Lysine-specific histone demethylase 1A; test: Inhibition of LSD1 in human SGC-7901 cells assessed as increase in H3K9me1/2 expression level at 0 to 30 nmol/L incubated for 48 hrs by Western blot analysis; assay type: cell-based; settings: dose 0-30 nmol/L
[20] = tested on: MGC-803; test: Induction of morphological changes in human MGC-803 cells assessed as appearance of broken nucleus at 24 nM incubated for 48 hrs by DAPI staining based analysis; assay type: functional, cell-based
[21] = molecular target: Tubulin beta (Homo sapiens) (UniProt P68371+Q9H4B7+Q13509+P04350+Q3ZCM7+P07437+Q13885+Q9BVA1+Q9BUF5+A6NNZ2); test: Binding affinity to colchicine binding site of beta-tubulin in human SGC-7901 cells assessed as inhibition of beta-tubulin alkylation by measuring disappearance of beta-tubulin-EBI adduct band pretreated for 2 hrs followed by EBI addition and measured after 2 hrs by Western blot analysis; assay type: cell-based; settings: dose 0-10 µM, time 4.0 hrs
[22] = molecular target: T2, Tubulin (Homo sapiens); test: Inhibition of tubulin polymerization in human MGC-803 cells assessed as destruction of microtubule network incubated for 48 hrs by immunofluorescence staining based fluorescence microscopic analysis; assay type: cell-based; settings: dose 0-24 nmol/L
[23] = tested on: MGC-803; test: Inhibition of cell migration in human MGC-803 cells assessed as reduction in rate of wound healing at 4 nmol/L measured after 0 to 48 hrs; assay type: functional, cell-based; settings: time 0-48 hrs
[24] = tested on: SMMC-7721; test: Antiproliferative activity against human SMMC-7721 cells assessed as inhibition of cell growth incubated for 48 hrs by MTT assay; assay type: functional, cell-based; settings: SMMC-7721, 48 h
[25] = tested on: MGC-803; test: Induction of cell cycle arrest in human MGC-803 cells assessed as accumulation of cells at G2/M phase incubated for 48 hrs; assay type: functional, cell-based; settings: dose 0-24 nmol/L
[26] = tested on: MGC-803; test: Antiproliferative activity against human MGC-803 cells assessed as inhibition of cell growth incubated for 48 hrs by MTT assay
[27] = tested on: SGC-7901; test: Induction of apoptosis in human SGC-7901 cells assessed as downregulation of Mcl-1 protein expression incubated for 48 hrs by Western blot analysis; assay type: functional, cell-based; settings: dose 0-30 nmol/L
[28] = tested on: SGC-7901; test: Induction of morphological changes in human SGC-7901 cells assessed as appearance of oblate and bright cells at 0 to 30 nmol/L incubated for 48 hrs by bright field microscopic analysis; assay type: functional, cell-based; settings: dose 0-30 nmol/L
[29] = tested on: MGC-803; test: Induction of apoptosis in human MGC-803 cells assessed as activation of caspase-3 at 0 to 24 nmol/L incubated for 48 hrs by Western blot analysis; assay type: functional, cell-based; settings: dose 0-24 nmol/L
[30] = tested on: PC-3; test: Antiproliferative activity against human PC-3 cells assessed as inhibition of cell growth incubated for 48 hrs by MTT assay; assay type: functional, cell-based; settings: PC-3, 48 h
[31] = tested on: SGC-7901; test: Induction of cell cycle arrest in human SGC-7901 cells assessed as accumulation of cells at G2/M phase incubated for 48 hrs; assay type: functional, cell-based; settings: dose 0-30 nmol/L
[32] = tested on: MGC-803; test: Induction of apoptosis in human MGC-803 cells assessed as activation of caspase-7 at 0 to 24 nmol/L incubated for 48 hrs by Western blot analysis; assay type: functional, cell-based; settings: dose 0-24 nmol/L
[33] = tested on: GES1; test: Cytotoxicity against human GES1 cells assessed as reduction in cell viability at 0 to 30 nM incubated for 48 hrs by MTT assay; assay type: toxicity, cell-based; settings: ges1, 48 h, 0.03 µM, dose 0-30 nM
[34] = tested on: MGC-803; test: Induction of apoptosis in human MGC-803 cells assessed as increase in total apoptotic cells incubated for 48 hrs by Annexin-FITC/PI staining based flow cytometry analysis; assay type: functional, cell-based; settings: dose 0-24 nmol/L

IC50 [1]: 0.254 µM | inhibition [2]: Active | IC50 [11]: 0.03 µM | inhibition [14]: Dose-Dependent Effect | inhibition [18]: Active | inhibition [19]: Active | Activity [21]: Dose-Dependent Effect | inhibition [22]: Dose-Dependent Effect | IC50 [24]: 0.027 µM | IC50 [30]: 0.0446 µM
Compound: COc1ccc(CN(C(=O)CSC(=S)N2CCN(c3ccc(N)cc3)CC2)c2cc(OC)c(OC)c(OC)c2)cc1O
Activity [3]: Dose-Dependent Effect | Activity [4]: Dose-Dependent Effect | Activity [5]: Active | Activity [6]: Active | Activity [7]: Dose-Dependent Effect | Activity [8]: Non-Toxic | Activity [9]: Active | Activity [10]: Active | Activity [12]: Non-Toxic | inhibition [13]: Active | Activity [15]: Active | Activity [16]: Dose-Dependent Effect | Activity [17]: Dose-Dependent Effect | Activity [20]: Active | inhibition [23]: Active | Activity [25]: Dose-Dependent Effect | Activity [26]: Dose-Dependent Effect | Activity [27]: Dose-Dependent Effect | Activity [28]: Active | Activity [29]: Active | Activity [31]: Dose-Dependent Effect | Activity [32]: Active | Activity [33]: Non-Toxic | Activity [34]: Dose-Dependent Effect

Reference: ChEMBL document CHEMBL5346930, “Discovery of novel N-benzylarylamide-dithiocarbamate based derivatives as dual inhibitors of tubulin polymerization and LSD1 that inhibit gastric cancers” (Eur J Med Chem, 2023)
